Patent US6503749B2 (Aventis Pharma S.A., priority 1998, dated 2003)

Molecular target: T1, APAT (acetyl-coenzyme A pregnenolone acetyltransferase) (Saccharomyces cerevisiae, UniProt P53296)
T1 construct: the semi-purified APAT transfers the acetate on 3β-ol, delta^4 or delta^5-steroids; endogenous in cells; host or cells: S. cerevisiae strain TGY73.4; endogenous enzyme purified in house from cell lysate (ZnCl2 precipitation, DEAE-Sephacel, Phenyl-Sepharose, Q-Sepharose, cholate-Sepharose)
Test: Test of APAT enzyme activity (semi-purified APAT; substrate specificity and inhibition)
Format: biochemical, S. cerevisiae
Settings: 30 μM of each steroid tested and 100 μM of [3H]acetyl-CoA; semi-purified APAT
Method: The pregnenolone is added in solution in 2 μl of tyloxapol (Sigma)/ethanol mixture (1:1) in a potassium phosphate buffer (20 mM) at pH 7.0. After incubation for 15 minutes at 30° C., the reaction is stopped by adding 2 ml of dichloromethane.
The steroids are extracted with dichloromethane, then separated by reversed-phase high-performance liquid chromatography (hereinafter: RP-HPLC) in isocratic elution conditions with acetonitrile in an Ultrasphere ODS column (Beckman) at 45° C. on an HP 1090 chromatograph (Hewlett-Packard) connected to a FLO-One 500 radiodetector (Packard) which permits measurement of the amount of pregnenolone [^3H]acetate formed.
One APAT unit is defined as the quantity of enzyme that produces 1 nmol of pregnenolone acetate per minute at 30° C., in the conditions described above.

T1 sequence (P53296 whole entry): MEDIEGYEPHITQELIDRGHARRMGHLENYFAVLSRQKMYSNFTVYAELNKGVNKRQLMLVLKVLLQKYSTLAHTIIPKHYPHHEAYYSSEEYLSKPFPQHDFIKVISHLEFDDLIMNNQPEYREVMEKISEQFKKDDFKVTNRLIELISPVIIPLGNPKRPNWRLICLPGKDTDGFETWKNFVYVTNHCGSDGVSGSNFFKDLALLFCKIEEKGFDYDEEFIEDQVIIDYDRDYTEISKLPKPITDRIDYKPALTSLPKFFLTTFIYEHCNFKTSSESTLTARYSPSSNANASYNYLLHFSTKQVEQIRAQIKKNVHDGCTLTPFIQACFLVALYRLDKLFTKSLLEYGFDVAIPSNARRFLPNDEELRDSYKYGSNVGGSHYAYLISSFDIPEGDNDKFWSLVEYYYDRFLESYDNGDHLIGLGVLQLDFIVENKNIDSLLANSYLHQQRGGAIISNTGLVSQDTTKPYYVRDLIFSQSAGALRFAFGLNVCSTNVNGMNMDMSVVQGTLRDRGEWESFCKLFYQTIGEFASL

Point of comparison: `C[C@]12CC[C@H](O)CC1=CC[C@@H]1[C@@H]2CC[C@]2(C)C(=O)CC[C@@H]12` [DHEA, dehydroepiandrosterone], “Relative activity (%), Substrate a)” value 104%. Against it:
- CC(C)CCC[C@@H](C)[C@H]1CC[C@H]2[C@@H]3CC=C4C[C@@H](O)CC[C@]4(C)[C@H]3CC[C@]12C [cholesterol] — lower, 0.6%
- CC(=O)[C@H]1CC[C@H]2[C@@H]3CCC4=C[C@@H](O)CC[C@]4(C)[C@H]3CC[C@]12C [4-pregnen-3βol-20-one] — lower, 70%
- CC(=O)[C@H]1CC[C@H]2[C@@H]3CC=C4C[C@@H](O)CC[C@]4(C)[C@H]3CC[C@]12C [Pregnenolone] — lower, 100%
- C[C@]12CC[C@@H]3c4ccc(O)cc4CC[C@H]3[C@@H]1CC[C@@H]2O [17β-oestradiol] — lower, 5%
- C[C@]12CC[C@@H]3c4ccc(O)cc4CC[C@H]3[C@@H]1CCC2=O [oestrone] — lower, 2.5%
- CC(=O)[C@H]1CC[C@H]2[C@@H]3CC[C@@H]4C[C@@H](O)CC[C@]4(C)[C@H]3CC[C@]12C [5β-pregnan-3βol-20-one] — lower, 1.8%
- CC(=O)[C@@]1(O)CC[C@H]2[C@@H]3CC=C4C[C@@H](O)CC[C@]4(C)[C@H]3CC[C@@]21C [17α-OH pregnenolone, 17α-hydroxypregnenolone] — lower, 89%
- CC(C)[C@@H](C)/C=C/[C@@H](C)[C@H]1CC[C@H]2C3=CC=C4C[C@@H](O)CC[C@]4(C)[C@H]3CC[C@]12C [ergosterol] — lower, 0.4%

Same assay, conditions: 100 μM of each acyl donor and 30 μM of [3H]pregnenolone; semi-purified APAT

For `CCCCCCCC/C=C\CCCCCCCC(=O)SCCNC(=O)CCNC(=O)[C@H](O)C(C)(C)COP(=O)(O)OP(=O)(O)OC[C@H]1O[C@@H](n2cnc3c(N)ncnc32)[C@H](O)[C@@H]1OP(=O)(O)O` [oleoyl-CoA], the “Relative activity (%), Substrate b)” value was “not detected”.

Point of comparison: `CCCC(=O)SCCNC(=O)CCNC(=O)[C@H](O)C(C)(C)COP(=O)(O)OP(=O)(O)OC[C@H]1O[C@@H](n2cnc3c(N)ncnc32)[C@H](O)[C@@H]1OP(=O)(O)O` [butyryl-CoA], “Relative activity (%), Substrate b)” value 16%. Against it:
- CCC(=O)SCCNC(=O)CCNC(=O)[C@H](O)C(C)(C)COP(=O)(O)OP(=O)(O)OC[C@H]1O[C@@H](n2cnc3c(N)ncnc32)[C@H](O)[C@@H]1OP(=O)(O)O [propionyl-CoA] — higher, 33%
- CCCCCC(=O)SCCNC(=O)CCNC(=O)[C@H](O)C(C)(C)COP(=O)(O)OP(=O)(O)OC[C@H]1O[C@@H](n2cnc3c(N)ncnc32)[C@H](O)[C@@H]1OP(=O)(O)O [hexanoyl-CoA] — higher, 18%

Same assay, conditions: reagents of sulfhydryl groups

In the case of `O=C(O)c1cc(SSc2ccc([N+](=O)[O-])c(C(=O)O)c2)ccc1[N+](=O)[O-]` [DTNB], the “Inhibition of APAT activity” value is reported as “strongly inhibited”.
For `CCN1C(=O)C=CC1=O` [NEM], the “Inhibition of APAT activity” value was “strongly inhibited”.

Same assay, conditions: zinc chloride 1 mM

`[Cl-].[Cl-].[Zn+2]` [zinc chloride] was tested, and the “Inhibition of APAT activity” value was “complete”.
